Among the data in ChEMBL document CHEMBL1155569, “Synthesis and structures of regioisomeric hydnocarpin-type flavonolignans” (J Nat Prod, 2000) are Activity values, retold here.

Active and inactive are the calls of the source. The calls are words filed in the database; no cut-off is given here.

The target of the experiment is T1, Quinolone resistance protein NorA (Staphylococcus aureus) (UniProt P0A0J7).
T1 sequence (whole entry): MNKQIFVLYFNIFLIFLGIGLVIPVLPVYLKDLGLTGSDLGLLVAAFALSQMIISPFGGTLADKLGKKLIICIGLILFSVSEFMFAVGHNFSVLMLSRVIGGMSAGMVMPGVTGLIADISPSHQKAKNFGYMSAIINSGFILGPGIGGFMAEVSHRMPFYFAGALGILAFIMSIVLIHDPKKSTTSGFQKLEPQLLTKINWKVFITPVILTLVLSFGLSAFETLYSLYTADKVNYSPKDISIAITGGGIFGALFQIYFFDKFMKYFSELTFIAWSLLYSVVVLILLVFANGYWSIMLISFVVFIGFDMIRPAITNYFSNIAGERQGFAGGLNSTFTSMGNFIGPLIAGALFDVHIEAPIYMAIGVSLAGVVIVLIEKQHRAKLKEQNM
As to the kind of experiment: Inhibition of Staphylococcus aureus NorA MDR efflux pump.

`COc1cc([C@H]2Oc3c(OC)cc(-c4cc(=O)c5c(O)cc(O)cc5o4)cc3O[C@@H]2CO)ccc1O` (racemic): the outcome was Active.

`COc1cc([C@H]2Oc3cc(-c4cc(=O)c5c(O)cc(O)cc5o4)cc(OC)c3O[C@@H]2CO)ccc1O` (racemic): the result was Active. In the case of `COc1cc([C@H]2Oc3cc(-c4cc(=O)c5c(O)cc(O)cc5o4)ccc3O[C@@H]2CO)ccc1O` (racemic), the result was Active.

Take `COc1cc([C@H]2Oc3ccc(-c4cc(=O)c5c(O)cc(O)cc5o4)cc3O[C@@H]2CO)ccc1O` (racemic): the outcome was Active.
